Laboratory results published in the supplement of paper PMC10307832.

Legend:
Assay in all cases: relative viability (nuclei count vs DMSO), 5 days (fraction); higher = more cells survive
[1] = compound: CC1=CC=C(C=C1)C(=O)CN2C3=C(CCCC3)SC2=N [Pifithrin_alpha] + COc1cc2c(Oc3ccc(NC(=O)C4(C(=O)Nc5ccc(F)cc5)CC4)cc3F)ccnc2cc1OCCCN1CCOCC1 [Foretinib] (partner 0.25 µM)
In short: (§1)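 The day after seeding in 1536-well plates, lung cancer cell lines were treated by pin tool with a single drug, or with a fixed anchor-drug dose together with five library-drug doses (not always all listed) in √10 steps. After 5 days, a combined fix-and-stain solution (final 0.05% Triton X-100, 1% formaldehyde, 1 ug/ml Hoechst) was added. Nuclei counted on 4× images gave relative viability as treated counts over vehicle counts, reported as the median of duplicate plates.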

Axitinib + Luminespib = compound: CNC(=O)c1ccccc1Sc1ccc2c(/C=C/c3ccccn3)n[nH]c2c1 [Axitinib] + CCNC(=O)c1noc(-c2cc(C(C)C)c(O)cc2O)c1-c1ccc(CN2CCOCC2)cc1 [Luminespib] (partner 0.01 µM)
In short: as §1

Axitinib + Foretinib = compound: CNC(=O)c1ccccc1Sc1ccc2c(/C=C/c3ccccn3)n[nH]c2c1 [Axitinib] + COc1cc2c(Oc3ccc(NC(=O)C4(C(=O)Nc5ccc(F)cc5)CC4)cc3F)ccnc2cc1OCCCN1CCOCC1 [Foretinib] (partner 0.25 µM)
In short: as §1

Bemcentinib + AZD7762 = compound: Nc1nc(Nc2ccc3c(c2)CC[C@@H](N2CCCC2)CC3)nn1-c1cc2c(nn1)-c1ccccc1CCC2 [Bemcentinib] + NC(=O)Nc1cc(-c2cccc(F)c2)sc1C(=O)N[C@H]1CCCNC1 [AZD7762] (partner 0.2 µM)
In short: as §1

Cell Line	relative viability ([1]; first compound 1 µM)	relative viability ([1]; first compound 3.162 µM)	relative viability ([1]; first compound 10 µM)	relative viability ([1]; first compound 31.62 µM)	relative viability ([1]; first compound 100 µM)	relative viability (Axitinib + Luminespib; first compound 0.005 µM)	relative viability (Axitinib + Luminespib; first compound 0.01581 µM)	relative viability (Axitinib + Luminespib; first compound 0.05 µM)	relative viability (Axitinib + Luminespib; first compound 0.1581 µM)	relative viability (Axitinib + Luminespib; first compound 0.5 µM)	relative viability (Axitinib + Foretinib; first compound 0.005 µM)	relative viability (Axitinib + Foretinib; first compound 0.01581 µM)	relative viability (Axitinib + Foretinib; first compound 0.05 µM)	relative viability (Axitinib + Foretinib; first compound 0.1581 µM)	relative viability (Axitinib + Foretinib; first compound 0.5 µM)	relative viability (Bemcentinib + AZD7762; first compound 0.04 µM)	relative viability (Bemcentinib + AZD7762; first compound 0.1265 µM)	relative viability (Bemcentinib + AZD7762; first compound 0.4 µM)	relative viability (Bemcentinib + AZD7762; first compound 1.265 µM)	relative viability (Bemcentinib + AZD7762; first compound 4 µM)
NCI-H2342	1.14	1.01	0.953	1.09	1.01	0.896	0.763	0.59	0.756	0.726	1.29	1.04	0.982	1.02	1.07	0.415	0.516	0.472	0.52	0.493
NCI-H460	1.06	0.974	0.933	0.492	0.631	0.0293	0.0335	0.0318	0.0323	0.0338	1.01	0.917	0.974	0.995	1.05	0.678	0.694	0.668	0.581	0.407
NCI-H322M	0.91	1.03	0.964	0.929	0.839	1.06	0.845	0.833	0.796	1.07	1.18	0.926	0.922	0.859	1.12	0.545	0.564	0.593	0.681	0.617
Calu-6	0.952	0.883	0.76	0.636	0.706						0.955	0.902	0.855	0.904	0.947					
NCI-H2023	0.969		0.578		0.523	0.76	0.942	0.752	0.745	0.97	0.906	0.943	0.911	0.923	0.923					
NCI-H1648																0.579	0.613	0.709	0.572	0.638
NCI-H1792						0.555	0.34	0.325	0.417	0.418						0.577	0.888	0.681	0.442	0.669
UMC-11	0.965	1.13	1.19	1.04	1.43	1.01	1.03	1.07	1.04	1.14	1.01	1.1	1.03	1.1	1.1					
NCI-H1650		1.2	1.04	0.837	0.853	0.195	0.194	0.192	0.203	0.236	1.32	1.12	1.24	1.19	1.31					
NCI-H1703	0.285	0.336	0.374	0.34	0.266						0.362	0.292	0.376	0.371	0.325	0.109	0.121	0.145	0.16	0.134
HCC-44						1.07	1.07	0.484	1.04	1.35						1.07	1.05	1.01	1.08	1.04
NCI-H661	0.996	1	0.981	0.94	0.904	0.901	0.924	0.9	0.998	0.952	1.06	1.01	1.09	1.04	1.12					
HCC-78	0.592	0.551	0.486	0.467	0.523						0.582	0.536	0.512	0.6	0.548	0.633	0.717	0.556	0.672	0.614
NCI-H522						1.28	1.18	1.02	0.998	1.02						0.872	0.766	0.771	0.949	0.849
SK-LU-1	0.884	0.95	0.84		0.858	0.224	0.21	0.188	0.201	0.238	0.904	0.959	0.929	0.849	1.1					
NCI-H2228	1.04	0.867	0.758	0.711	0.793	0.142	0.118	0.147	0.174	0.138	0.877	0.95	0.974	0.842	0.943					
NCI-H1623	0.825	0.811	0.759	0.628	0.669	0.519	0.602	0.444	0.538	0.481	0.948	0.846	0.758	0.838	0.885					
SW 1573	1.01	0.891	0.835	0.753	0.709	0.325	0.253	0.424	0.586	0.13	0.743	0.915	1.26	0.811	0.989					
SK-MES-1	0.763	0.817	0.857	0.588	0.604	0.774	0.781	0.746	0.766	0.825	0.976	0.977	1.02	0.925	0.951					
COR-L 105	1.08	0.976	1.13	0.897	0.734	0.628	0.922	0.669	0.64	0.81	0.973	1.12	1.16	1.05	1.49					
NCI-H1563	0.879	0.912	0.875	0.881	0.81	0.401	0.594	0.487	0.549	0.446	0.934	0.918	0.884	0.847	0.938					
NCI-H520	0.793	1.17	0.852	0.528	0.81	0.228	0.239	0.23	0.222	0.284	0.808	0.64	0.706		0.829					
